{"source": "paper PMC9224473", "about": "(International Journal of Molecular Sciences, 2022)", "key": {"S. aureus NCTC 4163": {"test_system": "S. aureus NCTC 4163", "experiment": "MIC, broth microdilution, standard strain", "type": "cell-based, Staphylococcus aureus", "settings": "35 °C"}, "S. aureus ATCC 25923": {"test_system": "S. aureus ATCC 25923", "experiment": "MIC, broth microdilution, standard strain", "type": "cell-based, Staphylococcus aureus", "settings": "35 °C"}, "S. aureus ATCC 6538": {"test_system": "S. aureus ATCC 6538", "experiment": "MIC, broth microdilution, standard strain", "type": "cell-based, Staphylococcus aureus", "settings": "35 °C"}, "S. aureus ATCC 29213": {"test_system": "S. aureus ATCC 29213", "experiment": "MIC, broth microdilution, standard strain", "type": "cell-based, Staphylococcus aureus", "settings": "35 °C"}, "[1]": {"test_system": "S. epidermidis ATCC 12228", "experiment": "MIC, broth microdilution, standard strain", "type": "cell-based, Staphylococcus epidermidis", "settings": "35 °C"}, "[2]": {"test_system": "S. epidermidis ATCC 35984", "experiment": "MIC, broth microdilution, standard strain", "type": "cell-based, Staphylococcus epidermidis", "settings": "35 °C"}, "E. coli ATCC 25922": {"test_system": "E. coli ATCC 25922", "experiment": "MIC, broth microdilution, standard strain", "type": "cell-based, Escherichia coli", "settings": "35 °C"}, "P. aeruginosa ATCC 15442": {"test_system": "P. aeruginosa ATCC 15442", "experiment": "MIC, broth microdilution, standard strain", "type": "cell-based, Pseudomonas aeruginosa", "settings": "35 °C"}, "[3]": {"test_system": "HCT116 (human colon cancer)", "experiment": "MTT cytotoxicity assay", "type": "cell-based", "settings": "mean SD", "description": "(§1) The human cell lines SW480 (primary colon cancer), SW620 (lymph node metastatic colon cancer from the same patient as primary cancer cells), HCT116 (colon carcinoma), HepG2 (liver cancer), and HaCaT (immortalized keratinocytes) were obtained from the American Type Culture Collection (ATCC, Rockville, MD, USA). The SW480, SW620 and HCT116 cells were grown in MEM (ThermoSci, Waltham, MA, USA), HepG2 and HaCaT in DMEM High Glucose (Biowest SAS, Nuaillé, France) supplemented with 10% foetal bovine serum (FBS), HEPES (20 mM), and antibiotics (100 U mL^−1 of Penicillin and 100 μg mL^−1 of Streptomycin). The cells were incubated in a humidified incubator at 37 °C/5% CO2, until 80–90% confluence was reached.\n(§2) The cell viability was assessed by using of MTT salt [3-(4,5-dimethylthiazol-2-yl)-2,5-diphenyltetrazolium bromide] converted by mitochondrial dehydrogenase, occurring in living cells. The cells were seeded in 96-well plates at a density of 1 × 10^4 cells per well and allowed to adhere for 24 h at 37 °C in a CO2 humidified incubator. […]. The untreated cells were used as the control.\n(§3) After 72 h incubation, the medium was replaced with 200 µL per well of free-serum medium containing 0.5 mg mL^−1 MTT and incubated for 4 h at 37 °C in a CO2 humidified incubator. Subsequently, the medium was removed and dimethyl sulfoxide (DMSO) with isopropanol (1:1) was added to dissolve the formazan crystals. The optical density was measured using UVM 340 reader (ASYS Hitech GmbH, Eugendorf, Austria) at a wavelength of 570 nm. The experiments were repeated three times. The cell viability was calculated as the percent of MTT reduced in treated cells versus control cells (untreated cells). The number of viable cells cultured without tested compounds was assumed as 100%. A decreased relative MTT level indicates decreased cell viability. The IC50 values were estimated using CompuSyn version 1.0."}, "[4]": {"test_system": "HaCaT (human immortal keratinocyte cell line)", "experiment": "MTT cytotoxicity assay", "type": "cell-based", "settings": "72 h, mean SD, read-out: IC50 HaCaT (normal cells)", "description": "as §1, §2, §3"}, "[5]": {"test_system": "HepG2 (human liver cancer)", "experiment": "MTT cytotoxicity assay", "type": "cell-based", "settings": "mean SD", "description": "as §1, §2, §3"}, "[6]": {"test_system": "SW480 (human primary colon cancer)", "experiment": "MTT cytotoxicity assay", "type": "cell-based", "settings": "mean SD", "description": "as §1, §2, §3"}, "[7]": {"test_system": "SW620 (human metastatic colon cancer)", "experiment": "MTT cytotoxicity assay", "type": "cell-based", "settings": "mean SD", "description": "as §1\nThe cell viability was assessed by using of MTT salt [3-(4,5-dimethylthiazol-2-yl)-2,5-diphenyltetrazolium bromide] converted by mitochondrial dehydrogenase, occurring in living cells. […] The untreated cells were used as the control.\nas §3, with “Subsequently,” for “After 72 h incubation, the medium was replaced with 200 µL per well of free-serum medium containing 0.5 mg mL^−1 MTT and incubated for 4 h at 37 °C in a CO2 humidified incubator. Subsequently,”"}, "[8]": {"test_system": "standard bacteria strains", "experiment": "Antimicrobial screening (MIC), standard bacteria strains", "type": "cell-based", "settings": "MIC evaluation", "description": "Obtained compounds were examined for antimicrobial potency. Firstly, all of them were screened for their minimal inhibitory concentrations (MICs). A suitable set of bacteria was used, including representative standard Gram-positive and Gram-negative rods (Table 2 and Table 3). For clarity, results are presented for menthol and thymol derivatives separately.\nThe antimicrobial assays were conducted using reference strains of bacteria derived from international microbe collections: American Type Culture Collection (ATCC) and National Collection of Type Culture (NCTC). The following standard strains of bacteria were used: Gram-positive—Staphylococcus aureus NCTC 4163, Staphylococcus aureus ATCC 25923, Staphylococcus aureus ATCC 6538, Staphylococcus aureus ATCC 29213, Staphylococcus epidermidis ATCC 12228, Staphylococcus epidermidis ATCC 35984, Gram-negative: Escherichia coli ATCC 25922, Pseudomonas aeruginosa ATCC 15442. […] Antimicrobial activity was examined by the Minimal Inhibitory Concentration (MIC) method under standard procedures provided by CLSI with some modifications. MIC was determined by the two-fold serial broth microdilution method in 96-well microtitration plates using Mueller–Hinton II broth medium (Becton Dickinson, Franklin Lakes, NJ, USA). The final inoculum of all studied bacteria was 10^6 CFU/mL (colony forming unit per millilitre). The stock solution of tested compounds was prepared in dimethyl sulfoxide (DMSO) and diluted to a maximum of 1% of solvent content with a sterile medium."}, "S. epidermidis KR 4243": {"test_system": "S. epidermidis KR 4243", "experiment": "MIC, broth microdilution, clinical strain", "type": "cell-based, Staphylococcus epidermidis", "settings": "Staphylococcus epidermidis, KR4243, 19 h, 35 °C"}, "S. pasteuri KR 4358": {"test_system": "S. pasteuri KR 4358", "experiment": "MIC, broth microdilution, clinical strain", "type": "cell-based, Staphylococcus pasteuri", "settings": "Staphylococcus pasteuri, KR4358, 19 h, 35 °C"}, "S. aureus T 5595": {"test_system": "S. aureus T 5595", "experiment": "MIC, broth microdilution, clinical strain", "type": "cell-based, Staphylococcus aureus", "settings": "Staphylococcus aureus, T5595, 19 h, 35 °C"}, "S. aureus T 5591": {"test_system": "S. aureus T 5591", "experiment": "MIC, broth microdilution, clinical strain", "type": "cell-based, Staphylococcus aureus", "settings": "Staphylococcus aureus, T5591, 19 h, 35 °C"}, "E. coli 520": {"test_system": "E. coli 520", "experiment": "MIC, broth microdilution, clinical strain", "type": "cell-based, Escherichia coli", "settings": "Escherichia coli, 520, 19 h, 35 °C"}, "E. coli 600": {"test_system": "E. coli 600", "experiment": "MIC, broth microdilution, clinical strain", "type": "cell-based, Escherichia coli", "settings": "Escherichia coli, 600, 19 h, 35 °C"}, "E. coli 510": {"test_system": "E. coli 510", "experiment": "MIC, broth microdilution, clinical strain", "type": "cell-based, Escherichia coli", "settings": "Escherichia coli, 510, 19 h, 35 °C"}, "P. aeruginosa 659": {"test_system": "P. aeruginosa 659", "experiment": "MIC, broth microdilution, clinical strain", "type": "cell-based, Pseudomonas aeruginosa", "settings": "Pseudomonas aeruginosa, 659, read-out: MIC P. aeruginosa 659, 19 h, 35 °C"}}, "note": "Read-outs that look alike come from different tables or passages of the source.", "data": [{"compound": "2-(2-isopropyl-5-methylphenoxy)-2-oxobutyl-1-cyclopropyl-6-fluoro-7-{4-[2-(2-isopropyl-5-methylphenoxy)-2-oxobutyl]piperazin-1-yl}-4-oxo-1,4-dihydroquinoline-3-carboxylate [Compound 15]", "values": [{"measurement": "MIC S. aureus NCTC 4163", "setting": "S. aureus NCTC 4163; 19 h", "value": 64, "unit": "µg/mL"}, {"measurement": "MIC S. aureus ATCC 25923", "setting": "S. aureus ATCC 25923; 19 h", "value": 64, "unit": "µg/mL"}, {"measurement": "MIC S. aureus ATCC 6538", "setting": "S. aureus ATCC 6538; 19 h", "value": 128, "unit": "µg/mL"}, {"measurement": "MIC S. aureus ATCC 29213", "setting": "S. aureus ATCC 29213; 19 h", "value": 256, "unit": "µg/mL"}, {"measurement": "MIC S. epidermidis ATCC 12228", "setting": "[1]; 19 h", "value": 128, "unit": "µg/mL"}, {"measurement": "MIC S. epidermidis ATCC 35984", "setting": "[2]; 19 h", "value": 128, "unit": "µg/mL"}, {"measurement": "MIC E. coli ATCC 25922", "setting": "E. coli ATCC 25922; 19 h", "value": 128, "unit": "µg/mL"}, {"measurement": "MIC P. aeruginosa ATCC 15442", "setting": "P. aeruginosa ATCC 15442; 19 h", "value": ">256", "unit": "µg/mL"}, {"measurement": "IC50", "setting": "[3]; 72 h", "value": "48.2 ± 5.3", "unit": "µM"}, {"measurement": "IC50", "setting": "[4]", "value": "67.1 ± 4.6", "unit": "µM"}, {"measurement": "IC50", "setting": "[5]; 72 h", "value": "61.8 ± 1.5", "unit": "µM"}, {"measurement": "IC50", "setting": "[6]; 72 h", "value": "40.8 ± 4.2", "unit": "µM"}, {"measurement": "IC50", "setting": "[7]; 72 h", "value": "57.4 ± 3.6", "unit": "µM"}, {"measurement": "Antimicrobial activity (in words)", "setting": "[8]", "value": "rather inactive"}]}, {"compound": "CC(C)[C@@H]1CC[C@@H](C)C[C@H]1OC(=O)CCCCCN1CCN(c2cc3c(cc2F)c(=O)c(C(=O)O)cn3C2CC2)CC1", "note": "[Compound 6, 1-cyclopropyl-6-fluoro-7-{4-[6-((1R,2S,5R)-2-isopropyl-5-methylcyclohexyloxy)-6-oxohexyl]piperazin-1-yl}-4-oxo-1,4-dihydroquinoline-3-carboxylic acid]", "values": [{"measurement": "MIC", "setting": "S. aureus NCTC 4163; Staphylococcus aureus, NCTC4163, 19 h", "value": 4, "unit": "µg/mL"}, {"measurement": "MIC", "setting": "S. aureus ATCC 25923; Staphylococcus aureus, ATCC25923, 19 h", "value": 8, "unit": "µg/mL"}, {"measurement": "MIC", "setting": "S. aureus ATCC 6538; Staphylococcus aureus, ATCC6538, 19 h", "value": 4, "unit": "µg/mL"}, {"measurement": "MIC", "setting": "S. aureus ATCC 29213; Staphylococcus aureus, ATCC29213, 19 h", "value": 8, "unit": "µg/mL"}, {"measurement": "MIC", "setting": "[1]; Staphylococcus epidermidis, ATCC12228, 19 h", "value": 8, "unit": "µg/mL"}, {"measurement": "MIC", "setting": "[2]; Staphylococcus epidermidis, ATCC35984, 19 h", "value": 8, "unit": "µg/mL"}, {"measurement": "MIC", "setting": "E. coli ATCC 25922; Escherichia coli, ATCC25922, 19 h", "value": 32, "unit": "µg/mL"}, {"measurement": "MIC", "setting": "P. aeruginosa ATCC 15442; Pseudomonas aeruginosa, ATCC15442, 19 h", "value": 256, "unit": "µg/mL"}, {"measurement": "MIC", "setting": "S. epidermidis KR 4243", "value": 8, "unit": "µg/mL"}, {"measurement": "MIC", "setting": "S. pasteuri KR 4358", "value": 8, "unit": "µg/mL"}, {"measurement": "MIC", "setting": "S. aureus T 5595", "value": 8, "unit": "µg/mL"}, {"measurement": "MIC", "setting": "S. aureus T 5591", "value": 8, "unit": "µg/mL"}, {"measurement": "MIC", "setting": "E. coli 520", "value": 64, "unit": "µg/mL"}, {"measurement": "MIC", "setting": "E. coli 600", "value": 64, "unit": "µg/mL"}, {"measurement": "MIC", "setting": "E. coli 510", "value": "> 256", "unit": "µg/mL"}, {"measurement": "MIC", "setting": "P. aeruginosa 659", "value": "> 256", "unit": "µg/mL"}, {"measurement": "IC50", "setting": "[3]; Homo sapiens, HCT-116, 72 h", "value": "29.5 ± 2.1", "unit": "µM"}, {"measurement": "IC50", "setting": "[4]; Homo sapiens, HaCaT", "value": "> 100", "unit": "µM"}, {"measurement": "IC50", "setting": "[5]; Homo sapiens, HepG2, 72 h", "value": "53.7 ± 0.9", "unit": "µM"}, {"measurement": "IC50", "setting": "[6]; Homo sapiens, SW480, 72 h", "value": "46.2 ± 1.8", "unit": "µM"}, {"measurement": "IC50", "setting": "[7]; Homo sapiens, SW-620, 72 h", "value": "38.1 ± 2.5", "unit": "µM"}, {"measurement": "melting point", "value": "210.8 to 212.4", "unit": "°C"}]}]}
